Data set [1] addresses nAChR labelled by 3H-α-bungarotoxin (α7 subunits) (Rattus norvegicus, UniProt Q05941). The experiment in a line: biochemical. It is filed as binding.
For data set [2], the target named is nAChRs comprised of α4 and β2 subunits (labelled by 3H-cytisine) (Rattus norvegicus, UniProt P09483+P12390). The experiment in a line: In vitro inhibition of 3H-cytisine binding. The procedure: In vitro inhibition of ^3H-cytisine binding
The predominant subtype with high affinity for nicotine is comprised of α4 and β2 subunits. nAChRs of the latter type can selectively be labelled by the nicotine modulator ^3H-cytisine.
Tissue Preparation: Preparations are performed at 0-4° C. unless otherwise indicated. […] The homogenate is centrifuged at 27,000×g for 10 min. The supernatant is discarded and the pellet is resuspended in fresh buffer and centrifuged a second time. The final pellet is resuspended in fresh buffer (35 ml per g of original tissue) and used for binding assays.
Assay: Aliquots of 500 μl homogenate are added to 25 μl of test solution and 25 μl of ^3H-cytisine (1 nM, final concentration), mixed and incubated for 90 min at 2° C. Non-specific binding is determined using (−)-nicotine (100 μM, final concentration). After incubation the samples are added 5 ml of ice-cold buffer and poured directly onto Whatman GF/C glass fibre filters under suction and immediately washed with 2×5 ml ice-cold buffer. The amount of radioactivity on the filters is determined by conventional liquid scintillation counting. Specific binding is total binding minus non-specific binding.

For data set [3] the following is noted: relative to morphine; cited from earlier work.
Where [4] appears, read: read-out: 3H-α-bungarotoxin IC50.
[5] abbreviates: 3H-cytisine IC50, rat cerebral cortex homogenate, 1 nM 3H-cytisine, 90 min at 2° C.
Setting [6] is: rat cerebral cortex homogenate, 1 nM 3H-cytisine, 90 min at 2° C., read-out: 3H-cytisine IC50.

Where “and” joins values, the source holds several entries; their conditions need not be identical. Identical values can stand only once. Counter-ions that a name gives are not always drawn. Like-named read-outs stand apart in the source and are kept apart here.

Chain of nAChRs comprised of α4 and β2 subunits (labelled by 3H-cytisine) (P09483 31-630): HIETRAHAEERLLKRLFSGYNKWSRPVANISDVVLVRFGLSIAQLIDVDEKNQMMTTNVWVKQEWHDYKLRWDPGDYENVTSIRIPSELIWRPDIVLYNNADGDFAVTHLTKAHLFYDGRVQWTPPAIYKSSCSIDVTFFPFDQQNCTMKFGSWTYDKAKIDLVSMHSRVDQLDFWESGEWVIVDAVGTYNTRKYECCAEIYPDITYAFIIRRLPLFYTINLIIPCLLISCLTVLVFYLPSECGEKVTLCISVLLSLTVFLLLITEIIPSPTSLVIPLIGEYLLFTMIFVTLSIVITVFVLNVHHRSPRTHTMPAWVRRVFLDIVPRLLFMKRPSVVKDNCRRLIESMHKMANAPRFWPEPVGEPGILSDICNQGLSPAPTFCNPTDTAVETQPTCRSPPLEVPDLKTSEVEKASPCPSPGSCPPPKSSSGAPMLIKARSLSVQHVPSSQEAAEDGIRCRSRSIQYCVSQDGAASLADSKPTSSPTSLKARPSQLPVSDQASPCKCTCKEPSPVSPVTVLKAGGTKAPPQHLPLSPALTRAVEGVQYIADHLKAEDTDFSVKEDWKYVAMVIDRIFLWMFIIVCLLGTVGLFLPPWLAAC
Chain of nAChRs comprised of α4 and β2 subunits (labelled by 3H-cytisine) (P12390 25-500): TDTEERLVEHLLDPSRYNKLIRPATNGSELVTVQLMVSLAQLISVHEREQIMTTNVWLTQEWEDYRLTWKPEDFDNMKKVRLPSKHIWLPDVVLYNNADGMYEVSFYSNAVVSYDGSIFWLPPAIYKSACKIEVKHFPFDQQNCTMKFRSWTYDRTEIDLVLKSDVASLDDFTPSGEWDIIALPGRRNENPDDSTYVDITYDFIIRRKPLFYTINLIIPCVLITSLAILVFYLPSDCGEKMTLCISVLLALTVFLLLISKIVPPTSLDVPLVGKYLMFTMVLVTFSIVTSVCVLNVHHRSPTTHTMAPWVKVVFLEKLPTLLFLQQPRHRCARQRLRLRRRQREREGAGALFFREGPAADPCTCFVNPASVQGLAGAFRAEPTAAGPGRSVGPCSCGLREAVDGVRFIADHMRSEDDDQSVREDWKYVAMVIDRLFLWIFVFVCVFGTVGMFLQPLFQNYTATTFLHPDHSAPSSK
Chain of nAChR labelled by 3H-α-bungarotoxin (α7 subunits) (Q05941 23-502): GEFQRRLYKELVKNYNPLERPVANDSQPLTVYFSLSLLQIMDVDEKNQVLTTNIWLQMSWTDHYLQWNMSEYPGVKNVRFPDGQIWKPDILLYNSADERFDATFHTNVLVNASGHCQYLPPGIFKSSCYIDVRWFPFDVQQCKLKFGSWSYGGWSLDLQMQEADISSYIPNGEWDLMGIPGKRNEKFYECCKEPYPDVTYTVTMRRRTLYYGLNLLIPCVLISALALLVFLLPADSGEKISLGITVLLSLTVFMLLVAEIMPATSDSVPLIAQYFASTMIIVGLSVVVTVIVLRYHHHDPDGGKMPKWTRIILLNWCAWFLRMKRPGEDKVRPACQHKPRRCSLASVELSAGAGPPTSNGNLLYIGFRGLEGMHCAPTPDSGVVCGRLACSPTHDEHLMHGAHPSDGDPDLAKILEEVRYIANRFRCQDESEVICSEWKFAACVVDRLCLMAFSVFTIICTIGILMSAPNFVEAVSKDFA

On to `CN1C2C=C(c3cc4ccccc4o3)CC1CC2.O=C(O)/C=C/C(=O)O` (racemic), for which the melting point is 188.3 to 190.9 °C and 188.5 to 191.2 °C.
As to `CN1C2C=C(c3cccnc3)CC1CC2` (racemic) [Compound 2a, (±)-8-Methyl-3-(3-pyridyl)-8-azabicyclo[3.2.1]oct-2-ene Fumaric Acid Salt], the IC50 in data set [1] worked out at 550 nM; in data set [2] it was 22 nM.
On to `CN1C2C=C(c3cnc4ccccc4c3)CC1CC2.O=C(O)/C=C/C(=O)O` (racemic) [Compound 3a, (±)-8-Methyl-3-(3-quinolinyl)-8-azabicyclo[3.2.1]oct-2-ene Fumaric Acid Salt], for which the melting point lay within 140.8 to 143.8 °C. The IC50 in data set [1] (setting [4]) came to 1440 nM. Besides, the IC50 in data set [2] (setting [5]) is 1300 nM.
In turn, `CN1C2C=C(c3csc4ccccc34)CC1CC2.O=C(O)/C=C/C(=O)O` (racemic) yielded a melting point of 146.6 to 149.5 °C.
In the case of `CN1C2C=C(c3coc4ccccc34)CC1CC2.O=C(O)/C=C/C(=O)O` (racemic) [Compound 4a, (±)-3-(3-Benzofuryl)-8-methyl-8-azabicyclo[3.2.1]oct-2-ene Fumaric Acid Salt], the melting point was in the range of 140.9 to 142.8 °C. Further, in data set [1] (setting [4]), the IC50 stood at 3500 nM. In data set [2] (setting [5]), the IC50 came out at 2700 nM.
Regarding `CN1C2C=C(c3ccc[se]3)CC1CC2` (racemic), the melting point was 176.8 to 178.3 °C.
On to `CCN1C2C=C(c3cc4ccccc4o3)CC1CC2.O=C(O)/C=C/C(=O)O` (racemic) [Compound 3e, (±)-3-(2-Benzofuryl)-8ethyl-8-azabicyclo[3.2.1]oct-2-ene Fumaric Acid Salt], for which the melting point fell in the range of 197 to 203 °C. Moreover, the IC50 in data set [1] (setting [4]) worked out at 510 nM. The molecule further came in with an IC50 in data set [2] (setting [5]) of over 10000 nM.
With `CN1C2C=C(c3cccc(N)c3)CC1CC2.O=C(O)/C=C/C(=O)O` (racemic) [Compound 4c, (±)-3-(3-Aminophenyl) 8-methyl-8-azabicyclo[3.2.1]oct-2-ene Fumaric Acid Salt], the melting point is 195.3 to 196.9 °C. Moreover, in data set [1] (setting [4]), the IC50 came to 440 nM. The molecule also returned an IC50 in data set [2] of 30 nM.
On to `CN1C2C=C(c3cc4ccccc4o3)CC1CC2` (racemic) [Compound 1d, (±)-3-(2-Benzofuryl)-8-methyl-8-azabicyclo[3.2.1]oct-2-ene Fumaric Acid Salt], for which the IC50 came out at 170 nM in data set [1] (setting [4]) and 120000 nM in data set [2] (setting [5]).
In the case of `CC(=O)Nc1cccc(C2=CC3CCC(C2)N3C)c1.O=C(O)/C=C/C(=O)O` (racemic) [Compound 3c, (±)-3-(3-Acetamidophenyl)-8-methyl-8-azabicyclo[3.2.1]oct-2-ene Fumaric Acid Salt], the melting point lay in the range of 195.3 to 196.9 °C. In data set [1], this molecule came in with an IC50 of 640 nM. Also, in data set [2] (setting [6]), the IC50 worked out at 17000 nM.
In turn, `CN1C2C=C(c3oc4ccccc4c3Br)CC1CC2` (racemic) (as salt: fumaric acid salt) [Compound 2f, (±)-3-[2-(3-Bromobenzofuryl)]-8-methyl-8-azabicyclo[3.2.1]oct-2-ene Fumaric Acid Salt] came in with a melting point of 161.4 to 163.3 °C.
Molecule `CN1C2C=C(c3cc4ccccc4s3)CC1CC2` (racemic) [Compound 2c, (±)-3-(2-Benzothienyl)-8-methyl-8-azabicyclo[3.2.1]oct-2ene] displayed a melting point of 81 to 83.6 °C. In data set [1] (setting [4]), the IC50 stood at 100 nM. The IC50 in data set [2] (setting [5]) turned out to be 63800 nM.
`CN1C2C=C(c3cccs3)CC1CC2.O=C(O)/C=C/C(=O)O` (racemic) came in with a melting point of 141.5 to 143.5 °C.
`CC(=O)C1=CC2CCC(C1)N2C.O=C(O)/C=C/C(=O)O` (racemic) had a melting point of 148.5 to 150 °C.
Regarding `CN1C2C=C(c3oc4ccccc4c3Br)CC1CC2` (racemic) [Compound 2f, (±)-3-[2-(3-Bromobenzofuryl)]-8-methyl-8-azabicyclo[3.2.1]oct-2-ene Fumaric Acid Salt], the IC50 in data set [1] (setting [4]) stood at 1300 nM; in data set [2] (setting [6]), 30000 nM.
For `C1=C(c2cccnc2)CC2CCC1N2Cc1ccccc1.O=C(O)/C=C/C(=O)O` (racemic) [Compound 1a, (±)-8-Benzyl-3-(3-pyridyl)-8-azabicyclo[3.2.1]oct-2-ene Fumaric Acid Salt], the melting point is 142 to 146 °C. Besides, the IC50 in data set [1] (setting [4]) was found to be 500 nM. In data set [2] (setting [5]), this molecule yielded an IC50 of 23 nM.
In the case of `CN1C2C=C(c3ccc(Cl)nc3)CC1CC2` (racemic) [Compound 5b, (±)-8-Methyl-3-[3-(6-chloro)pyridyl]-8-azabicyclo[3.2.1]oct-2-ene Fumaric Acid Salt], the IC50 in data set [1] was 1900 nM; in data set [2] (setting [6]), 20 nM.
`CN1C2C=C(c3ccc(Cl)nc3)CC1CC2` (racemic) (as salt: fumaric acid salt) [Compound 5b, (±)-8-Methyl-3-[3-(6-chloro)pyridyl]-8-azabicyclo[3.2.1]oct-2-ene Fumaric Acid Salt]: the melting point was 140 to 142 °C.
For `C1=C(c2cc3ccccc3o2)CC2CCC1N2` (racemic) [Compound 1e, (±)-3-(2-Benzofuryl)-8-H-8-azabicyclo[3.2.1]oct-2-ene Fumaric Acid Salt], the values for the half-inhibitory concentration (IC50) in data set [1] and in data set [2] (setting [6]) were 800 nM and over 10000 nM, respectively.
In turn, `C1=C(c2cc3ccccc3o2)CC2CCC1N2` (racemic) (as salt: fumaric acid salt) [Compound 1e, (±)-3-(2-Benzofuryl)-8-H-8-azabicyclo[3.2.1]oct-2-ene Fumaric Acid Salt] returned a melting point of 201 to 204 °C.
On to `CN1C2C=C(c3sccc3-c3ccoc3)CC1CC2.O=C(O)/C=C/C(=O)O` (racemic), for which the melting point was 187 to 189 °C.
As for `CN1C2C=C(c3sccc3Br)CC1CC2` (racemic) [Compound 1f, (±)-3-[2-(3-bromothienyl)]-8-methyl-8-azabicyclo[3.2.1]oct-2-ene Fumaric Acid Salt], the IC50 was 82 nM in data set [1] (setting [4]) and 2200 nM in data set [2] (setting [6]).
As to `CN1C2C=C(c3ccsc3)CC1CC2.Cl` (racemic), the melting point was 117 to 118.5 °C.
In turn, `CN1C2C=C(c3cc4ccccc4s3)CC1CC2.Cl` (racemic) [Compound 2d, (±)-3-(2-Benzothienyl)-8-methyl-8-azabicyclo[3.2.1]oct-2-ene Hydrochloride] displayed a melting point of over 250 °C. Also, the IC50 in data set [1] (setting [4]) was determined as 67 nM. This molecule gave an IC50 in data set [2] (setting [5]) of 110000 nM.
Regarding `Clc1ccc(C2CC3CCC2N3)cn1` (stereo not shown) [Epibatidine], the approximate analgesic potency in data set [3] is recorded as ~500 times that of morphine.
With `CN1C2C=C(c3nccs3)CC1CC2.O=C(O)/C=C/C(=O)O` (racemic), the melting point lay within 196.3 to 198.5 °C.
In turn, `CN1C2C=C(c3nc4ccccc4s3)CC1CC2.O=C(O)/C=C/C(=O)O` (racemic) returned a melting point of 195 to 196.8 °C.

In general, melting point refers to the temperature of the solid-liquid transition. What is called IC50 is the concentration that inhibits the measured activity by half.

The values are drawn from patent US6645977B1 (priority 1997, dated 2003).
